# Literature values in patent publication US11304932B2, “Diaryl and arylheteroaryl urea derivatives as modulators of the 5-HT2A serotonin receptor useful for the prophylaxis and treatment of hallucinations associated with a neurodegenerative disease” (Axovant Sciences GmbH, priority 2015, dated 2022).
# How the values were obtained:
# [1] = clozapine at low dose
SMILES,efficacy in psychotic symptoms associated with Parkinson's Disease [1],"tolerability and PK/PD profile (daily dose of 80 mg, studies completed to date)","safety and tolerability profile (previous clinical studies to date, proposed dose range)"
"CC(C)COc1ccc(CNC(=O)N(Cc2ccc(F)cc2)C2CCN(C)CC2)cc1 [pimavanserin, N-(4-fluorophenylmethyl)-N-(1-methylpiperidin-4-yl)-N′-(4-(2-methylpropyloxy)phenylmethyl)carbamide]",demonstrate efficacy,–,–
"COc1ccc(NC(=O)Nc2ccc(F)cc2F)cc1-c1c(Br)cnn1C [Nelotanserin, 1-[3-(4-bromo-2-methyl-2H-pyrazol-3-yl)-4-methoxy-phenyl]-3-(2,4-difluoro-phenyl)-urea]",–,favorable tolerability and PK/PD profile,acceptable safety and tolerability profile
